Test results as given in the NIST ThermoML archive (doi:10.1016/j.fluid.2018.07.028).
± gives the expanded uncertainty stated by the source.

Assay: activity coefficient (dimensionless); of the first substance listed, at infinite dilution; xn = mol fraction of the nth substance listed
Conditions: 101.33 kPa, Liquid, Chromatography, x1 = 0

Work on `CCC(C)(C)OC` [2-methoxy-2-methylbutane] + CCCC[P+](CCCC)(CCCC)CCCC.O=S(=O)([N-]S(=O)(=O)C(F)(F)F)C(F)(F)F yielded an activity coefficient (358.15 K) of 2 ± 0.14, an activity coefficient (368.15 K) of 2.07 ± 0.14 and an activity coefficient (378.15 K) of 2.13 ± 0.14. It also gave an activity coefficient (388.15 K) of 2.2 ± 0.15, an activity coefficient (398.15 K) of 2.26 ± 0.15 and an activity coefficient (408.15 K) of 2.32 ± 0.16.

With `COC(C)(C)C` [2-methoxy-2-methylpropane] + CCCC[P+](CCCC)(CCCC)CCCC.O=S(=O)([N-]S(=O)(=O)C(F)(F)F)C(F)(F)F the activity coefficient (358.15 K) was 1.66 ± 0.11, the activity coefficient (368.15 K) was 1.73 ± 0.12 and the activity coefficient (378.15 K) was 1.8 ± 0.12. For the same compound, the activity coefficient (388.15 K) was 1.87 ± 0.13, the activity coefficient (398.15 K) was 1.94 ± 0.13 and the activity coefficient (408.15 K) was 2.01 ± 0.14.

In the case of `CC(C)CO` [2-methyl-1-propanol] + CCCC[P+](CCCC)(CCCC)CCCC.O=S(=O)([N-]S(=O)(=O)C(F)(F)F)C(F)(F)F, the activity coefficient (358.15 K) is reported as 1.57 ± 0.1, the activity coefficient (368.15 K) is reported as 1.52 ± 0.1 and the activity coefficient (378.15 K) is reported as 1.46 ± 0.1. For the same compound, the activity coefficient (388.15 K) was 1.41 ± 0.09, the activity coefficient (398.15 K) was 1.37 ± 0.09 and the activity coefficient (408.15 K) was 1.33 ± 0.09.

`CC(C)(C)O` [2-methylpropan-2-ol] + CCCC[P+](CCCC)(CCCC)CCCC.O=S(=O)([N-]S(=O)(=O)C(F)(F)F)C(F)(F)F gave an activity coefficient (358.15 K) of 1.41 ± 0.09, an activity coefficient (368.15 K) of 1.4 ± 0.09 and an activity coefficient (378.15 K) of 1.38 ± 0.09. The activity coefficient (388.15 K) was 1.37 ± 0.09, the activity coefficient (398.15 K) was 1.36 ± 0.09 and the activity coefficient (408.15 K) was 1.35 ± 0.09.

With `CCC(C)CC` [3-methylpentane] + CCCC[P+](CCCC)(CCCC)CCCC.O=S(=O)([N-]S(=O)(=O)C(F)(F)F)C(F)(F)F the activity coefficient (358.15 K) was 4.02 ± 0.27, the activity coefficient (368.15 K) was 4.04 ± 0.28 and the activity coefficient (378.15 K) was 4.06 ± 0.28. It also gave an activity coefficient (388.15 K) of 4.09 ± 0.28, an activity coefficient (398.15 K) of 4.11 ± 0.28 and an activity coefficient (408.15 K) of 4.13 ± 0.28.

`C=C(C)c1ccccc1` [(1-methylethenyl)benzene] + CCCC[P+](CCCC)(CCCC)CCCC.O=S(=O)([N-]S(=O)(=O)C(F)(F)F)C(F)(F)F showed an activity coefficient (358.15 K) of 1.4 ± 0.09, an activity coefficient (368.15 K) of 1.46 ± 0.1 and an activity coefficient (378.15 K) of 1.52 ± 0.1. For the same compound, the activity coefficient (388.15 K) was 1.58 ± 0.1, the activity coefficient (398.15 K) was 1.64 ± 0.11 and the activity coefficient (408.15 K) was 1.7 ± 0.11.

`CC(C)=O` [acetone] + CCCC[P+](CCCC)(CCCC)CCCC.O=S(=O)([N-]S(=O)(=O)C(F)(F)F)C(F)(F)F gave an activity coefficient (358.15 K) of 0.503 ± 0.038, an activity coefficient (368.15 K) of 0.524 ± 0.039 and an activity coefficient (378.15 K) of 0.545 ± 0.04. For the same compound, the activity coefficient (388.15 K) was 0.567 ± 0.041, the activity coefficient (398.15 K) was 0.587 ± 0.042 and the activity coefficient (408.15 K) was 0.607 ± 0.042.

With `CC#N` [acetonitrile] + CCCC[P+](CCCC)(CCCC)CCCC.O=S(=O)([N-]S(=O)(=O)C(F)(F)F)C(F)(F)F the activity coefficient (358.15 K) was 0.602 ± 0.042, the activity coefficient (368.15 K) was 0.613 ± 0.043 and the activity coefficient (378.15 K) was 0.625 ± 0.043. For the same compound, the activity coefficient (388.15 K) was 0.635 ± 0.044, the activity coefficient (398.15 K) was 0.645 ± 0.044 and the activity coefficient (408.15 K) was 0.655 ± 0.045.

`c1ccccc1` [benzene] + CCCC[P+](CCCC)(CCCC)CCCC.O=S(=O)([N-]S(=O)(=O)C(F)(F)F)C(F)(F)F showed an activity coefficient (358.15 K) of 0.836 ± 0.054, an activity coefficient (368.15 K) of 0.869 ± 0.056 and an activity coefficient (378.15 K) of 0.901 ± 0.057. For the same compound, the activity coefficient (388.15 K) was 0.933 ± 0.059, the activity coefficient (398.15 K) was 0.963 ± 0.061 and the activity coefficient (408.15 K) was 0.994 ± 0.062.

In the case of `CCCCO` [butan-1-ol] + CCCC[P+](CCCC)(CCCC)CCCC.O=S(=O)([N-]S(=O)(=O)C(F)(F)F)C(F)(F)F, the activity coefficient (358.15 K) is reported as 1.67 ± 0.11, the activity coefficient (368.15 K) is reported as 1.61 ± 0.11 and the activity coefficient (378.15 K) is reported as 1.56 ± 0.1. The activity coefficient (388.15 K) was 1.51 ± 0.1, the activity coefficient (398.15 K) was 1.46 ± 0.1 and the activity coefficient (408.15 K) was 1.42 ± 0.09.

`CCC(C)O` (stereo not given) [butan-2-ol] + CCCC[P+](CCCC)(CCCC)CCCC.O=S(=O)([N-]S(=O)(=O)C(F)(F)F)C(F)(F)F gave an activity coefficient (358.15 K) of 1.53 ± 0.1, an activity coefficient (368.15 K) of 1.49 ± 0.1 and an activity coefficient (378.15 K) of 1.46 ± 0.1. For the same compound, the activity coefficient (388.15 K) was 1.43 ± 0.09, the activity coefficient (398.15 K) was 1.4 ± 0.09 and the activity coefficient (408.15 K) was 1.37 ± 0.09.

In the case of `CCCC=O` [butanal] + CCCC[P+](CCCC)(CCCC)CCCC.O=S(=O)([N-]S(=O)(=O)C(F)(F)F)C(F)(F)F, the activity coefficient (358.15 K) is reported as 0.669 ± 0.045, the activity coefficient (368.15 K) is reported as 0.699 ± 0.047 and the activity coefficient (378.15 K) is reported as 0.729 ± 0.048. It also gave an activity coefficient (388.15 K) of 0.758 ± 0.05, an activity coefficient (398.15 K) of 0.787 ± 0.051 and an activity coefficient (408.15 K) of 0.817 ± 0.053.

`C1CCCCCC1` [cycloheptane] + CCCC[P+](CCCC)(CCCC)CCCC.O=S(=O)([N-]S(=O)(=O)C(F)(F)F)C(F)(F)F gave an activity coefficient (358.15 K) of 3.42 ± 0.23, an activity coefficient (368.15 K) of 3.41 ± 0.23 and an activity coefficient (378.15 K) of 3.4 ± 0.23. For the same compound, the activity coefficient (388.15 K) was 3.39 ± 0.23, the activity coefficient (398.15 K) was 3.38 ± 0.23 and the activity coefficient (408.15 K) was 3.37 ± 0.23.

Compound `C1CCCCC1` [cyclohexane] + CCCC[P+](CCCC)(CCCC)CCCC.O=S(=O)([N-]S(=O)(=O)C(F)(F)F)C(F)(F)F has an activity coefficient (358.15 K) of 2.85 ± 0.19, an activity coefficient (368.15 K) of 2.85 ± 0.19 and an activity coefficient (378.15 K) of 2.85 ± 0.19. It also gave an activity coefficient (388.15 K) of 2.86 ± 0.19, an activity coefficient (398.15 K) of 2.86 ± 0.19 and an activity coefficient (408.15 K) of 2.86 ± 0.19.

With `C1=CCCCC1` [cyclohexene] + CCCC[P+](CCCC)(CCCC)CCCC.O=S(=O)([N-]S(=O)(=O)C(F)(F)F)C(F)(F)F the activity coefficient (358.15 K) was 2.24 ± 0.15, the activity coefficient (368.15 K) was 2.27 ± 0.15 and the activity coefficient (378.15 K) was 2.29 ± 0.16. For the same compound, the activity coefficient (388.15 K) was 2.32 ± 0.16, the activity coefficient (398.15 K) was 2.34 ± 0.16 and the activity coefficient (408.15 K) was 2.37 ± 0.16.
